Data published in patent US12458647B2, “Macrocyclic derivative and use thereof” (Guangzhou Joyo Pharmatech Co., Ltd., priority 2022, dated 2025).
Where two headings read alike, the source gives them in different places.

Tested on: p-ERK level in GP2D cells
Assay: Detection of p-ERK level in GP2D cells (HTRF)
Assay type: cell-based
Conditions: 3 hours incubation, read-out: GP2D pERK IC50
Source text: GP2D cell line (DMEM+10% FBS+1% penicillin/streptomycin) was purchased from ECACC; RPMI-1640 medium was purchased from Gibco; fetal bovine serum was purchased from Hyclone; Advanced Phospho-ERK1/2(THR202/TYR204) KIT was purchased from Bioauxilium-Advanced Phospho; ERK1/2(THR202/TYR204) KIT was composed of: Advanced PhosphoERK1/2Eu Cryptate antibody, Advanced PhosphoERK1/2 d2 antibody. Blocking reagent (stock solution 100×), Lysis buffer #1 (stock solution 4×), Detection buffer (ready-to-use), with a storage temperature of ≤−16° C. for all.
(1) The cells were seeded in a white-bottomed 384-well cell culture plate, 8 μL of cell suspension per well, each well containing 7,500 cells. The cell plate was placed in a carbon dioxide incubator and incubated overnight at 37° C.;
(2) The test compound was diluted with 100% DMSO to 3 mM as the first concentration, and then diluted with a pipette to 10 concentrations of 3,000, 1,000, 300, 100, 30, 10, 3, 1, 0.3 and 0.1 μM 2 μL of the compound was taken and added to 198 μL of cell starvation medium, mixed well, 15 μL of compound solution was taken and added to 35 μL of cell starvation medium and mixed well. […]
(5) After incubation, a multilabel plate reader was used to read the HTRF excitation: 320 nm, emission: 615 nm, and 665 nm. […]

Row | IC50 [nM] | IC50 (GP2d) [nM] | Structure (SMILES)
1 | 0.8 |  | CCn1c(-c2cc(N3CCN(C)CC3)cnc2C(C)OC)c2c3cc(ccc31)-c1csc(n1)CC(NC(=O)C1CC1C(F)F)C(=O)N1NC(C(=O)OCC(C)(C)C2)C2CC1C2 (single isomer, unassigned) [Trifluoroacetate of Compound 8A]
2 |  | 0.2 | [2H]C([2H])([2H])N1CCN(c2cnc([C@H](C)OC)c(-c3c4c5cc(ccc5n3CC)-c3csc(n3)C[C@H](NC(=O)[C@H]3[C@H](C)[C@@H]3C)C(=O)N3N[C@H](C(=O)OCC(C)(C)C4)C4CC3C4)c2)CC1 [Trifluoroacetate of Compound 12A]
